This note sets out measurements from patent publication US20240067693A1, “POLYPEPTIDES AND USES THEREOF” (MEDIMMUNE LIMITED, priority 2020, published 2024).

For experiment [1], the target named is T1, human amylin receptor (calcitonin receptor co-expressed with receptor activity modifying protein, RAMP3) (hAMYR3) (Homo sapiens, UniProt O60896+P30988).
T1 construct: expressed in transfected cells
T1 sequence (P30988 25-474): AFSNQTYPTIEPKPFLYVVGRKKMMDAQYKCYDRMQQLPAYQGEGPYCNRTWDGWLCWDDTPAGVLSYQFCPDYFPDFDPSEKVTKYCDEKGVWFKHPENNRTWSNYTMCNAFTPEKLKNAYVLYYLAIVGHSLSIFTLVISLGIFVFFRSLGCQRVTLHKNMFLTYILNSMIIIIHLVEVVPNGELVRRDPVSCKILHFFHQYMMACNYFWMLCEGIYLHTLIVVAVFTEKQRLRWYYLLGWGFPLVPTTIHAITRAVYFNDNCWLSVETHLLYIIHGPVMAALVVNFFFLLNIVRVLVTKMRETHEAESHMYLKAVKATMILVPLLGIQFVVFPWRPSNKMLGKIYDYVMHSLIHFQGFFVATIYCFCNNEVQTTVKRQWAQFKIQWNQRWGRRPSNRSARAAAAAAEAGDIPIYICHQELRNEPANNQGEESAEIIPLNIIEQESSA
T1 sequence (O60896 24-148 partner): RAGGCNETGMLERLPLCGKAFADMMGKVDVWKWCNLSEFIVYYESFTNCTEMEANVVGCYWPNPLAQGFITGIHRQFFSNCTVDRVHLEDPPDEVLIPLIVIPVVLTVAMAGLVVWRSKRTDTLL
The experiment in a line: cAMP production in 1321N1 cells with stable recombinant expression of human amylin receptor (hAMYR3). It is filed as cell-based. To be noted: for Ratio (selectivity hAMYR vs hCTR, ratio of EC50 values at the two receptors): EC50 hCTR / EC50 hAMYR3; for EC50: cAMP, 1321N1 cells, assay buffer with 0.1% BSA, read-out: EC50 (pM) hAMYR3. The method in brief: (§1)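 Thawed cells in HBSS/0.1% BSA/25 mM HEPES pH 7.4 with 0.5 mM IBMX were incubated with peptides 30 min at room temperature; cAMP read by HTRF. EC50 from 4-parameter fit of % activation relative to maximal amylin or calcitonin effect.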

Experiment [2] deals with T2, human calcitonin receptor (hCTR) (Homo sapiens, UniProt P30988).
T2 construct: expressed in transfected cells
T2 sequence (P30988 25-474): T1 sequence (P30988 25-474)
Kind of experiment: cAMP production in 1321N1 cells with stable recombinant expression of human calcitonin receptor (hCTR). To be noted: cAMP, 1321N1 cells, assay buffer with 0.1% BSA; read-out: EC50 (pM) hCTR. It counts as cell-based. The method in brief: as §1

Structures are written as SMILES. Numbered stars: 1 amine (or outer) side, 2 acyl side, 3 side chain; on linkers, the order of the positions; unused ones are H or OH. Bridge positions count the residues as written; N and C are the ends. Square brackets hold non-standard residues; d marks the D form. Side chains are listed from the residue outwards. Peptide text beside a SMILES is read from it. * marks the point of attachment. C18 diacid = O=C(O)CCCCCCCCCCCCCCCCC(=O)*; γGlu = O=C(O)[C@H](CCC(=O)[*:2])N[*:1]; Aib = CC(C)(N)C(=O)O

In the case of `CC[C@H](C)[C@H](NC(=O)[C@@H]1CCCN1C(=O)CNC(=O)[C@H](Cc1ccccc1)NC(=O)[C@H](CC(N)=O)NC(=O)[C@H](CCCNC(=N)N)NC(=O)[C@H](CO)NC(=O)[C@H](CO)NC(=O)[C@H](Cc1c[nH]cn1)NC(=O)C(C)(C)NC(=O)[C@H](CC(C)C)NC(=O)[C@H](Cc1ccccc1)NC(=O)[C@H](CC(N)=O)NC(=O)[C@H](C)NC(=O)[C@H](CC(C)C)NC(=O)[C@H](CCCNC(=N)N)NC(=O)[C@H](CCC(N)=O)NC(=O)[C@@H](NC(=O)[C@H](C)NC(=O)[C@@H]1CSSC[C@H](NC(=O)[C@H](CCCCN)NC(=O)[C@@H](N)CCCCNC(=O)CC[C@H](NC(=O)CCCCCCCCCCCCCCCCC(=O)O)C(=O)O)C(=O)N[C@@H](CC(N)=O)C(=O)N[C@@H]([C@@H](C)O)C(=O)N[C@@H](C)C(=O)N[C@@H]([C@@H](C)O)C(=O)N1)[C@@H](C)O)C(=O)N[C@@H](CC(C)C)C(=O)N1CCC[C@H]1C(=O)N1CCC[C@H]1C(=O)N[C@H](C(=O)N[C@@H](CC(N)=O)C(=O)N[C@H](C(=O)NCC(=O)N[C@@H](CO)C(=O)N[C@@H](CC(N)=O)C(=O)N[C@H](C(=O)N[C@@H](Cc1ccc(O)cc1)C(N)=O)[C@@H](C)O)C(C)C)[C@@H](C)O` [Peptide 137] (H-K([γGlu-C18 diacid])KCNTATCATQRLANFL[Aib]HSSRNFGPILPPTNVGSNTY-NH2; disulfide 3-8; N-terminus assumed), in experiment [1], the “Ratio (selectivity hAMYR vs hCTR, ratio of EC50 values at the two receptors)” value is reported as 6.3 and the concentration giving a half-maximal response (EC50) (as a rule, the concentration that produces a half-maximal response) turned out to be 238 pM. In addition, in experiment [2], the concentration for a half-maximal effect (EC50) was 1500 pM.

Turning to `CC[C@H](C)[C@H](NC(=O)[C@@H]1CCCN1C(=O)CNC(=O)[C@H](Cc1ccccc1)NC(=O)[C@H](CC(N)=O)NC(=O)[C@H](CC(N)=O)NC(=O)[C@H](CO)NC(=O)[C@H](CO)NC(=O)[C@H](Cc1c[nH]cn1)NC(=O)C(C)(C)NC(=O)[C@H](CC(C)C)NC(=O)[C@H](Cc1ccccc1)NC(=O)[C@H](CC(N)=O)NC(=O)[C@H](C)NC(=O)[C@H](CC(C)C)NC(=O)[C@H](CCCNC(=N)N)NC(=O)[C@H](CCC(N)=O)NC(=O)[C@@H](NC(=O)[C@H](C)NC(=O)[C@@H]1CSSC[C@H](NC(=O)[C@H](CCCCN)NC(=O)CNC(=O)CNC(=O)[C@@H](N)CCCCNC(=O)CC[C@H](NC(=O)CCCCCCCCCCCCCCCCC(=O)O)C(=O)O)C(=O)N[C@@H](CC(N)=O)C(=O)N[C@@H]([C@@H](C)O)C(=O)N[C@@H](C)C(=O)N[C@@H]([C@@H](C)O)C(=O)N1)[C@@H](C)O)C(=O)N[C@@H](CC(C)C)C(=O)N1CCC[C@H]1C(=O)N1CCC[C@H]1C(=O)N[C@H](C(=O)N[C@@H](CC(N)=O)C(=O)N[C@H](C(=O)NCC(=O)N[C@@H](CO)C(=O)N[C@@H](CC(N)=O)C(=O)N[C@H](C(=O)N[C@@H](Cc1ccc(O)cc1)C(N)=O)[C@@H](C)O)C(C)C)[C@@H](C)O` [Peptide 143] (H-K([γGlu-C18 diacid])GGKCNTATCATQRLANFL[Aib]HSSNNFGPILPPTNVGSNTY-NH2; disulfide 5-10; N-terminus assumed), in experiment [1], the “Ratio (selectivity hAMYR vs hCTR, ratio of EC50 values at the two receptors)” value is 11.7. Also, the EC50 in experiment [1] turned out to be 592 pM; in experiment [2], 6940 pM.

Turning to `CC[C@H](C)[C@H](NC(=O)[C@@H]1CCCN1C(=O)CNC(=O)[C@H](Cc1ccccc1)NC(=O)[C@H](CC(N)=O)NC(=O)C(C)(C)NC(=O)[C@H](CO)NC(=O)[C@H](CO)NC(=O)[C@H](Cc1c[nH]cn1)NC(=O)[C@@H](NC(=O)[C@H](CC(C)C)NC(=O)[C@H](Cc1ccccc1)NC(=O)[C@H](CC(N)=O)NC(=O)[C@H](C)NC(=O)[C@H](CC(C)C)NC(=O)[C@H](CCCNC(=N)N)NC(=O)[C@H](CCC(N)=O)NC(=O)[C@@H](NC(=O)[C@H](C)NC(=O)[C@@H]1CSSC[C@H](NC(=O)[C@H](CCCCN)NC(=O)[C@@H](N)CCCCNC(=O)CC[C@H](NC(=O)CCCCCCCCCCCCCCCCC(=O)O)C(=O)O)C(=O)N[C@@H](CC(N)=O)C(=O)N[C@@H]([C@@H](C)O)C(=O)N[C@@H](C)C(=O)N[C@@H]([C@@H](C)O)C(=O)N1)[C@@H](C)O)C(C)C)C(=O)N[C@@H](CC(C)C)C(=O)NC(C)(C)C(=O)N1CCC[C@H]1C(=O)N[C@H](C(=O)N[C@@H](CC(N)=O)C(=O)N[C@H](C(=O)NCC(=O)N[C@@H](CO)C(=O)N[C@@H](CC(N)=O)C(=O)N[C@H](C(=O)N[C@@H](Cc1ccc(O)cc1)C(N)=O)[C@@H](C)O)C(C)C)[C@@H](C)O` [Peptide 88, K(γE-C18diacid)K[CNTATC]ATQRLANFLVHSS(Aib)NFGPIL(Aib)PTNVGSNTY-amide] (H-K([γGlu-C18 diacid])KCNTATCATQRLANFLVHSS[Aib]NFGPIL[Aib]PTNVGSNTY-NH2; disulfide 3-8; N-terminus assumed), in experiment [1], the “Ratio (selectivity hAMYR vs hCTR, ratio of EC50 values at the two receptors)” value stood at 4 and the concentration for a half-maximal effect (EC50) was 281 pM. Further, in experiment [2], the half-maximal effective concentration (EC50) was 1170 pM.

On to `CC[C@H](C)[C@H](NC(=O)[C@@H]1CCCN1C(=O)CNC(=O)[C@H](Cc1ccccc1)NC(=O)[C@H](CC(N)=O)NC(=O)C(C)(C)NC(=O)[C@H](CO)NC(=O)[C@H](CO)NC(=O)[C@H](Cc1c[nH]cn1)NC(=O)[C@@H](NC(=O)[C@H](CC(C)C)NC(=O)[C@H](Cc1ccccc1)NC(=O)[C@H](CC(N)=O)NC(=O)[C@H](C)NC(=O)[C@H](CC(C)C)NC(=O)[C@H](CCCNC(=N)N)NC(=O)[C@H](CCC(N)=O)NC(=O)[C@@H](NC(=O)[C@H](C)NC(=O)[C@@H]1CSSC[C@H](NC(=O)[C@H](CCCCN)NC(=O)[C@@H](N)CCCCNC(=O)CC[C@H](NC(=O)CCCCCCCCCCCCCCCCC(=O)O)C(=O)O)C(=O)N[C@@H](CC(N)=O)C(=O)N[C@@H]([C@@H](C)O)C(=O)N[C@@H](C)C(=O)N[C@@H]([C@@H](C)O)C(=O)N1)[C@@H](C)O)C(C)C)C(=O)NC(C)(C)C(=O)N1CCC[C@H]1C(=O)N1CCC[C@H]1C(=O)N[C@H](C(=O)N[C@@H](CC(N)=O)C(=O)N[C@H](C(=O)NCC(=O)N[C@@H](CO)C(=O)N[C@@H](CC(N)=O)C(=O)N[C@H](C(=O)N[C@@H](Cc1ccc(O)cc1)C(N)=O)[C@@H](C)O)C(C)C)[C@@H](C)O` [Peptide 79, K(γE-C18diacid)K[CNTATC]ATQRLANFLVHSS(Aib)NFGPI(Aib)PPTNVGSNTY-amide] (H-K([γGlu-C18 diacid])KCNTATCATQRLANFLVHSS[Aib]NFGPI[Aib]PPTNVGSNTY-NH2; disulfide 3-8), for which, in experiment [1], the “Ratio (selectivity hAMYR vs hCTR, ratio of EC50 values at the two receptors)” value amounted to 7 and the EC50 was 659 pM. For the same compound, the concentration giving a half-maximal response (EC50) in experiment [2] was 4800 pM.

On to `CC[C@H](C)[C@H](NC(=O)[C@@H]1CCCN1C(=O)CNC(=O)[C@H](Cc1ccccc1)NC(=O)[C@H](CC(N)=O)NC(=O)C(C)(C)NC(=O)[C@H](CO)NC(=O)[C@H](CO)NC(=O)[C@H](Cc1c[nH]cn1)NC(=O)[C@@H](NC(=O)[C@H](CC(C)C)NC(=O)[C@H](Cc1ccccc1)NC(=O)[C@H](CC(N)=O)NC(=O)[C@H](C)NC(=O)[C@H](CC(C)C)NC(=O)[C@H](CCCNC(=N)N)NC(=O)[C@H](CCC(N)=O)NC(=O)[C@@H](NC(=O)[C@H](C)NC(=O)[C@@H]1CSSC[C@H](NC(=O)[C@H](CCCCN)NC(=O)[C@@H](N)CCCCNC(=O)CC[C@H](NC(=O)CCCCCCCCCCCCCCCCC(=O)O)C(=O)O)C(=O)N[C@@H](CC(N)=O)C(=O)N[C@@H]([C@@H](C)O)C(=O)N[C@@H](C)C(=O)N[C@@H]([C@@H](C)O)C(=O)N1)[C@@H](C)O)C(C)C)C(=O)N[C@@H](CC(C)C)C(=O)N1CCC[C@H]1C(=O)N1CCC[C@H]1C(=O)N[C@H](C(=O)N[C@@H](CC(N)=O)C(=O)N[C@H](C(=O)NCC(=O)N[C@@H](CO)C(=O)N[C@@H](CC(N)=O)C(=O)NC(C)(C)C(=O)N[C@@H](Cc1ccc(O)cc1)C(N)=O)C(C)C)[C@@H](C)O` [Peptide 83, K(γE-C18diacid)K[CNTATC]ATQRLANFLVHSS(Aib)NFGPILPPTNVGSN(Aib)Y-amide] (H-K([γGlu-C18 diacid])KCNTATCATQRLANFLVHSS[Aib]NFGPILPPTNVGSN[Aib]Y-NH2; disulfide 3-8; N-terminus assumed), for which, in experiment [1], the “Ratio (selectivity hAMYR vs hCTR, ratio of EC50 values at the two receptors)” value is listed as 11 and the EC50 came out at 599 pM. For the same compound, the EC50 in experiment [2] stood at 6340 pM.
